Measured values: PubChem BioAssay (NCI)
Several values for one entry are separate records, joined by “and”; a condition that tells them apart may be missing. Identical values can stand only once.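 Results reflect a 48-hour exposure of cells in 96-well plates to compound at five concentrations. Abbreviation: GI50, concentration required for 50% inhibition of growth. TGI is the concentration that stops growth completely.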

Key:
Assay in all cases: inhibition of tumour cell growth, NCI panel, 48 h; in the data active = GI50 below about 0.43 µM; inactive = the rest
A549 NSCLC = system: A549 NSCLC
ACHN renal = system: ACHN renal
HCT-15 colon = system: HCT-15 colon
M14 melanoma = system: M14 melanoma
NCI-H226 lung = system: NCI-H226 lung
NCI-H522 lung = system: NCI-H522 lung
SNB-75 CNS = system: SNB-75 CNS
UACC-257 melanoma = system: UACC-257 melanoma
T-47D breast = system: T-47D breast
MCF7 breast = system: MCF7 breast

CC(=O)OCC1OC(OC2CC3C(C)(C)C(OC(C)=O)CC[C@]3(C)C3CCC45CC4(CC[C@H]5C(C)CC(O)[C@@H](O)C(C)(C)O)[C@]23C)C(O)C(O)C1O (stereo not given in full)
7.17 µM and 7.74 µM: TGI (NCI-H522 lung)
14 µM and 24.3 µM: TGI (HCT-15 colon)
13.3 µM: TGI (NCI-H226 lung)
inactive: GI50 (A549 NSCLC) 19.9 µM | GI50 (ACHN renal) 15 µM | GI50 (HCT-15 colon) 12 µM | GI50 (M14 melanoma) 4.97 µM | GI50 (SNB-75 CNS) 5.04 µM
14.3 µM and 29 µM: TGI (ACHN renal)
12 µM and 16.8 µM: TGI (SNB-75 CNS)
14.2 µM and 35 µM: TGI (A549 NSCLC)
13.8 µM and 20.7 µM: TGI (UACC-257 melanoma)
13.1 µM and 16.6 µM: TGI (M14 melanoma)

COc1ccc(/C=C2\CN(C(=O)C(Cl)Cl)C/C(=C\c3ccc(OC)c(OC)c3)C2=O)cc1OC
1.72 µM: TGI (NCI-H226 lung)
0.356 µM: TGI (M14 melanoma)
inactive: GI50 (A549 NSCLC) 1.28 µM | GI50 (NCI-H226 lung) 0.43 µM | GI50 (SNB-75 CNS) 0.651 µM
0.446 µM: TGI (HCT-15 colon)
0.381 µM: TGI (ACHN renal)
> 100 µM: TGI (A549 NSCLC) | TGI (SNB-75 CNS) | TGI (T-47D breast)
active: GI50 (ACHN renal) 0.165 µM | GI50 (HCT-15 colon) 0.069 µM | GI50 (M14 melanoma) 0.0926 µM | GI50 (NCI-H522 lung) 0.231 µM | GI50 (T-47D breast) 0.361 µM
0.697 µM: TGI (NCI-H522 lung)

Cc1cccc(C)c1NC(=O)CCCC(=O)CC(=O)/C=C/c1ccccc1
> 100 µM: TGI (A549 NSCLC) | TGI (ACHN renal) | TGI (HCT-15 colon) | TGI (M14 melanoma) | TGI (NCI-H522 lung) | TGI (SNB-75 CNS) | TGI (UACC-257 melanoma)

Cc1nc2c(=O)[nH]c(=O)n(C)c2[nH]c1=O
> 100 µM: TGI (A549 NSCLC) | TGI (ACHN renal) | TGI (HCT-15 colon) | TGI (M14 melanoma) | TGI (NCI-H226 lung) | TGI (NCI-H522 lung) | TGI (SNB-75 CNS) | TGI (UACC-257 melanoma)

C=CC[C@H]1C[C@@]2(C)OC[C@H](C(C)C)N2C1=O
> 100 µM: TGI (A549 NSCLC) | TGI (ACHN renal) | TGI (HCT-15 colon) | TGI (SNB-75 CNS) | TGI (UACC-257 melanoma)

CCCCCCCCCCC(C)CCCCCCC(=O)OCC(COP(=O)([O-])OCC[N+](C)(C)C)OC(=O)CCCCCCC(C)CCCCCCCCCC (stereo not given)
> 100 µM: TGI (A549 NSCLC) | TGI (ACHN renal) | TGI (HCT-15 colon) | TGI (M14 melanoma) | TGI (NCI-H226 lung) | TGI (NCI-H522 lung) | TGI (SNB-75 CNS) | TGI (UACC-257 melanoma)

S=c1[nH]c(=S)c2sc(=S)n(-c3ccccc3)c2[nH]1
> 100 µM: TGI (A549 NSCLC) | TGI (ACHN renal) | TGI (HCT-15 colon) | TGI (M14 melanoma) | TGI (NCI-H226 lung) | TGI (NCI-H522 lung) | TGI (SNB-75 CNS) | TGI (UACC-257 melanoma)

C[C@@H]1O[C@@H](O[C@@H]2[C@@H](O)[C@H](OCCc3ccc(O)c(O)c3)O[C@H](COC(=O)/C=C/c3ccc(O)c(O)c3)[C@H]2O)[C@H](O)[C@H](O)[C@H]1O
inactive: GI50 (A549 NSCLC) > 100 µM | GI50 (ACHN renal) > 100 µM | GI50 (HCT-15 colon) > 100 µM | GI50 (M14 melanoma) > 100 µM | GI50 (NCI-H226 lung) > 100 µM | GI50 (NCI-H522 lung) > 100 µM | GI50 (SNB-75 CNS) > 100 µM | GI50 (T-47D breast) > 100 µM | GI50 (UACC-257 melanoma) 62.9 µM
> 100 µM: TGI (A549 NSCLC) | TGI (ACHN renal) | TGI (HCT-15 colon) | TGI (M14 melanoma) | TGI (NCI-H226 lung) | TGI (NCI-H522 lung) | TGI (SNB-75 CNS) | TGI (T-47D breast) | TGI (UACC-257 melanoma)

CN(C)CC(/C(Cc1ccccc1)=N\NC(=O)c1ccncc1)c1ccccc1 (stereo not given)
> 100 µM: TGI (A549 NSCLC) | TGI (M14 melanoma) | TGI (NCI-H226 lung) | TGI (NCI-H522 lung) | TGI (UACC-257 melanoma)
92.8 µM: TGI (SNB-75 CNS)
97.7 µM: TGI (ACHN renal)

c1nc2cscc2c2cscc12
> 100 µM: TGI (A549 NSCLC) | TGI (ACHN renal) | TGI (HCT-15 colon) | TGI (M14 melanoma) | TGI (NCI-H226 lung) | TGI (NCI-H522 lung) | TGI (UACC-257 melanoma)

COc1ccc(C2S/C(=C\c3cc(OC)c(OC)c(OC)c3)C(=O)N2NC(=O)Cc2ccccc2)cc1 (stereo not given)
> 100 µM: TGI (A549 NSCLC) | TGI (ACHN renal) | TGI (HCT-15 colon) | TGI (M14 melanoma) | TGI (NCI-H226 lung) | TGI (NCI-H522 lung) | TGI (SNB-75 CNS) | TGI (UACC-257 melanoma)

Fc1ccc(Oc2nccc(-c3c(-c4ccc(F)cc4)ncn3C3CCNCC3)n2)cc1
> 25 µM: TGI (A549 NSCLC) | TGI (ACHN renal) | TGI (HCT-15 colon) | TGI (M14 melanoma) | TGI (MCF7 breast) | TGI (NCI-H522 lung) | TGI (SNB-75 CNS) | TGI (T-47D breast)
inactive: GI50 (A549 NSCLC) > 25 µM | GI50 (ACHN renal) > 25 µM | GI50 (HCT-15 colon) > 25 µM | GI50 (M14 melanoma) > 25 µM | GI50 (MCF7 breast) > 25 µM | GI50 (NCI-H522 lung) > 25 µM | GI50 (SNB-75 CNS) > 25 µM | GI50 (T-47D breast) > 18 µM

O=[N+]([O-])c1ccc(Sc2c3ccccc3nc3ccccc23)cc1
> 100 µM: TGI (A549 NSCLC) | TGI (ACHN renal) | TGI (HCT-15 colon) | TGI (M14 melanoma) | TGI (NCI-H226 lung) | TGI (NCI-H522 lung) | TGI (SNB-75 CNS) | TGI (UACC-257 melanoma)

Nc1nc(Nc2ccc3c(c2)CC[C@@H](N2CCCC2)CC3)nn1-c1cc2c(nn1)-c1ccccc1CCC2
2.26 µM: TGI (HCT-15 colon)
5.1 µM: TGI (T-47D breast)
inactive: GI50 (A549 NSCLC) 1.63 µM | GI50 (ACHN renal) 0.878 µM | GI50 (HCT-15 colon) 0.798 µM | GI50 (M14 melanoma) 1.43 µM | GI50 (NCI-H522 lung) 1.75 µM | GI50 (SNB-75 CNS) 1.22 µM | GI50 (T-47D breast) 2.16 µM | GI50 (UACC-257 melanoma) 1.89 µM
3.66 µM: TGI (UACC-257 melanoma)
3.57 µM: TGI (A549 NSCLC)
3 µM: TGI (M14 melanoma)
3.79 µM: TGI (NCI-H522 lung)
2.11 µM: TGI (ACHN renal)
2.48 µM: TGI (SNB-75 CNS)

Cc1cc(O)c(C(=O)CC2(O)C(=O)Nc3c(Cl)cc(Cl)cc32)c(=O)o1 (stereo not given)
> 100 µM: TGI (A549 NSCLC) | TGI (ACHN renal) | TGI (HCT-15 colon) | TGI (M14 melanoma) | TGI (NCI-H226 lung) | TGI (NCI-H522 lung) | TGI (UACC-257 melanoma)
95.1 µM: TGI (SNB-75 CNS)

N#CC1=C(N)N=C(N2CCCCC2)C(C#N)C12Nc1ccccc1S2 (stereo not given)
76.4 µM: TGI (ACHN renal)
> 100 µM: TGI (A549 NSCLC) | TGI (HCT-15 colon) | TGI (MCF7 breast) | TGI (SNB-75 CNS) | TGI (T-47D breast)
51 µM: TGI (UACC-257 melanoma)
56.8 µM: TGI (NCI-H522 lung)
46.8 µM: TGI (M14 melanoma)
inactive: GI50 (A549 NSCLC) 29.5 µM | GI50 (ACHN renal) 27.1 µM | GI50 (HCT-15 colon) 22 µM | GI50 (M14 melanoma) 19.1 µM | GI50 (MCF7 breast) 44.9 µM | GI50 (NCI-H522 lung) 22.2 µM | GI50 (SNB-75 CNS) 84.1 µM | GI50 (T-47D breast) 35 µM | GI50 (UACC-257 melanoma) 20.9 µM

O=C(Nc1ccc(-n2cc(-c3ccncc3)c(-c3ccc(Cl)c(O)c3)n2)cc1)Nc1cc(C(F)(F)F)cc(C(F)(F)F)c1
8 µM: TGI (T-47D breast)
5.22 µM: TGI (UACC-257 melanoma)
3.56 µM: TGI (M14 melanoma)
8.15 µM: TGI (MCF7 breast)
3.88 µM: TGI (SNB-75 CNS)
10.3 µM: TGI (ACHN renal)
4.3 µM: TGI (A549 NSCLC) | TGI (HCT-15 colon)
inactive: GI50 (A549 NSCLC) 1.93 µM | GI50 (ACHN renal) 2.92 µM | GI50 (HCT-15 colon) 1.9 µM | GI50 (M14 melanoma) 1.76 µM | GI50 (MCF7 breast) 2.58 µM | GI50 (NCI-H226 lung) 2.45 µM | GI50 (SNB-75 CNS) 1.18 µM | GI50 (T-47D breast) 1.85 µM | GI50 (UACC-257 melanoma) 2.01 µM
10.6 µM: TGI (NCI-H226 lung)

CC1(C)OC[C@@H]([C@@]2(CO[Si](C)(C)C(C)(C)C)CC=CC(=O)O2)O1
47.5 µM: TGI (A549 NSCLC)
51.7 µM: TGI (ACHN renal)
50.7 µM: TGI (M14 melanoma)
inactive: GI50 (A549 NSCLC) 16.7 µM | GI50 (ACHN renal) 22.4 µM | GI50 (HCT-15 colon) 34.7 µM | GI50 (M14 melanoma) 20.9 µM | GI50 (MCF7 breast) 36.8 µM | GI50 (NCI-H522 lung) 30.2 µM | GI50 (T-47D breast) 24.9 µM | GI50 (UACC-257 melanoma) 13.8 µM
86.2 µM: TGI (NCI-H522 lung)
33.2 µM: TGI (UACC-257 melanoma)
> 100 µM: TGI (HCT-15 colon) | TGI (MCF7 breast) | TGI (T-47D breast)
